One data set addresses T1, CapaR (Drosophila melanogaster, UniProt Q8ITC7).
T1 construct: transiently transfected with the apoaequorin ORF; expressed in transfected cells; host or cells: Drosophila melanogaster S2 cells, transient transfection, expression induced with CuSO4
T1 sequence (Q8ITC7 1-477): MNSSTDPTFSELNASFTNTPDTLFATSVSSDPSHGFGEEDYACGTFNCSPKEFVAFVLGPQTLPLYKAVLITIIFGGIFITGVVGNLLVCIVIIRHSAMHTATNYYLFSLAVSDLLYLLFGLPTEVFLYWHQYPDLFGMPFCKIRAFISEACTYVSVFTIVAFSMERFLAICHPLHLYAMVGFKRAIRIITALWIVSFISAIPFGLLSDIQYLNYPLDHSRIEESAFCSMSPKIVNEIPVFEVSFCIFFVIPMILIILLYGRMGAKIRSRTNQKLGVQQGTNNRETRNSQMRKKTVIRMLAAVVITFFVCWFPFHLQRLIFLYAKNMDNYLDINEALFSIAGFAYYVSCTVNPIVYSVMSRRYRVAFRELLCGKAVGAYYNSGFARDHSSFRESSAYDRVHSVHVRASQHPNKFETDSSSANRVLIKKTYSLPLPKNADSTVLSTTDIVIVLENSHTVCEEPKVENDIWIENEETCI
Nature of the data set: Measurement of intracellular Ca2+ in S2 cells transfected with CapaR (agonist response). To be noted: 10^−7 M; activity normalised to that of native Capa2 (designated 100%). It counts as cell-based. As for the experimental part:
Drosophila melanogaster S2 cells, cultured under standard conditions (1) were transiently transfected with the apoaequorin ORF (Radford J C, Davies S A, Dow J A. Systematic G-protein-coupled receptor analysis in Drosophila melanogaster identifies a leucokinin receptor with novel roles. J Biol Chem. 2002; 277:38810-38817) and a receptor ORF construct, and expression induced using CuSO4. Transfected S2 cells were harvested and incubated with 2.5 μM coelenterazine in the dark at RT for 1-2 h as described (ibid). 25,000 cells were then placed in 135 μl Schneider's medium supplemented with 10% FCS in a well of a white polystyrene 96-well plate (Berthold Technologies). Bioluminescence recordings were carried out using a Mithras LB940 automated 96-well plate reader (Berthold Technologies) and MikroWin software. 15 μl of each of different peptides were applied to final concentrations as required.
Peptides were tested at 10^−7M.
At the end of each recording samples were disrupted by the addition of 100 μl lysis solution, and the [Ca^2+] concentrations calculated as previously described (Rosay P, Davies S A, Yu Y, Sozen A, Kaiser K, et al. Cell-type specific calcium signalling in a Drosophila epithelium. J Cell Sci. 1997; 110:1683-1692).
For the Capa1 and Capa2 peptides, the relevant native control peptide (D. melanogaster Capa1 or Capa2 respectively) was used as a control. Control agonist activity was normalised to 100% and activity of neuropeptide analogues is expressed relative to that.

Data set [1] deals with bumblebees (Bombus terrestris). Kind of data set: Bumblebee acute oral toxicity test. It is filed as in vivo. The settings on record: for lethal effect on bumblebees: 1×10^−5 M in 50% sucrose, oral; for safety towards B. terrestris in the bumblebee oral toxicity assay: in vivo. The procedure:
Oral toxicity against bumblebees (Bombus terrestris) was determined as previously described:
OECD (2017), Test No. 247: Bumblebee, Acute Oral Toxicity Test, OECD Guidelines for the Testing of Chemicals, Section 2, OECD Publishing, Paris, https://doi.org/10.1787/9789264284128-en.
Example data are provided for peptides, AH56, AH257, AH259 in Tables 4, 5 below. […]
Data were acquired for: feeding behaviour—weight of liquid consumed pre- and post-treatment; lethality (days).
There was no negative impact on feeding behaviour from capa peptides. Acute bumblebee toxicity was also assessed for other peptide candidates including: AH270, PEG270. Overall, capa peptides are bee safe.

The test system of data set [2] is aminopeptidase, endopeptidase, carboxypeptidase. It counts as in vitro ADME. As for the experimental part: (§1) Enzyme digests were performed using aminopeptidase, endopeptidase, carboxypeptidase, or Drosophila melanogaster Malpighian tubule tissue extract. Peptide digests were performed in triplicate alongside ‘mock’ digests, where protease was substituted with water to determine peptide stability in aqueous media at 37° C. Several peptides were tested, including 1st generation AH56 and 3rs generation AH259. These are biostable in the presence of purified proteases for >24 hours; and for >3 hours to insect tissue extracts which are enriched for proteases.

The format of data set [3] is in vitro ADME, Drosophila melanogaster. The procedure:
as §1

In data set [4] the test system is Drosophila suzukii larvae. Kind of data set: Drosophila suzukii larval feeding (Example 8; peptide screening). It counts as in vivo.
Data set [5] has as its system M. persicae. Nature of the data set: Feeding of aphids with peptides in artificial diet (Example 1). It counts as in vivo, Myzus persicae. The settings on record: 10^−5 M.
The subject of data set [6] is M. persicae. Nature of the data set: Feeding of aphids with peptides in artificial diet (Example 2; peptide screening, honeydew). To be noted: Peptide screening, Table 5. It is filed as in vivo, Myzus persicae.
A further data set relates to Myzus persicae aphids. Kind of data set: Topical application by spraying, Potter Spray Tower (Example 3). It is filed as in vivo. The settings on record: 48 hours post spray.
In data set [7] the target is T2, Drosophila melanogaster capa GPCR, capaR (Drosophila melanogaster, UniProt Q8ITC7 1-477).
T2 sequence (looked up): T1 sequence (Q8ITC7 1-477)
Kind of data set: cell-based or functional assay.

Setting [8] is: Table 11, individual bees, peptide 1 × 10 − 5M or Spirotetramat 25 uM.
Where [9] appears, read: Table 12, individual bees, 20% sucrose 0.1% ATPlus AH56.
The mark [10] stands for this setting: Table 12, 20% sucrose 0.1% ATPlus AH56.

“And” between values parts separate entries of the source, which are not always exact repeats. Identical values can stand only once. Square brackets hold non-standard residues; d marks the D form. * marks the point of attachment. Guanidyl = -C(=N+Me2)NMe2 on the N-terminal amine (tetramethylguanidyl cap), CN(C)C(=[N+](C)C)*; NMeV = CN[C@H](C(=O)O)C(C)C Some results are limits rather than exact numbers.

As for `CC(C)C[C@H](N=C(N(C)C)N(C)C)C(=O)N[C@H](C(=O)N[C@@H](C)C(=O)N[C@@H](Cc1ccccc1)C(=O)N1CCC[C@H]1C(=O)N[C@@H](CCCNC(=N)N)C(=O)N(C)[C@H](C(N)=O)C(C)C)C(C)C` [AH257, Guanidyl-LVAFPR-(Me)V-NH2], at CapaR, the “CapaR Ca^2+ Agonist response” value is 85%. Also, the “lethal effect on bumblebees” value in [1] (0.1% ATPlus) was “No lethal effect”. In addition, the “dead?” value in data set [1] (Table 10, individual bees, peptide ×10−5M or imidacloprid 28.3 uM in 50% sucrose, 0.1% ATPlus) is listed as 2. Besides, in [1], the “safety towards B. terrestris in the bumblebee oral toxicity assay” value (“safety towards B. terrestris” below) is listed as “safe”. For the same molecule, in [1] (individual bees, peptide ×10−5M or imidacloprid 28.3 uM in 50% sucrose, 0.1% ATPlus), the “Est weight sucrose consumed post testing/day” value was 0.4789 grams/day and 0.0824 grams/day and 0.2612 grams/day and 0.3450 grams/day and 0.1265 grams/day and 0.4161 grams/day and 0.2912 grams/day and 0.3677 grams/day and 0.2298 grams/day and 0.3016 grams/day and 0.2869 grams/day. In [1] (individual bees, post minus pre testing sucrose consumption), the “Feeding impacted? (+ve feeding increased post pep, −ve feeding decreased post pep)” value is 0.0902 grams/day and −0.0881 grams/day and 0.0770 grams/day and 0.0006 grams/day and −0.0429 grams/day and −0.0008 grams/day and −0.0193 grams/day and 0.2039 grams/day and 0.0347 grams/day and 0.0995 grams/day and 0.0416 grams/day. For the same molecule, the “T-test outcome, sucrose consumed Pre vs Post” value in data set [1] (per treatment group) is “No sig effect”.
With `CC(C)C[C@H](NC(=O)CCCCCN)C(=O)N[C@H](C(=O)N(C)[C@@H](C)C(=O)N[C@@H](Cc1ccccc1)C(=O)N1CCC[C@H]1C(=O)N[C@@H](CCCNC(=N)N)C(=O)N(C)[C@H](C(N)=O)C(C)C)C(C)C` [AH270, H-Ahx-LV-(Me)A-FPR-(Me)V-NH2], the “CapaR Ca^2+ Agonist response” value at CapaR is 85%. Moreover, in [1] (Table 11, group mean, n=10), the “Liquid post exposure (weight), Mean” value turned out to be 0.7794 g and the “liquid consumed per day post exposure, Mean” value worked out at 0.1949 g. In addition, in [1] (setting [8]), the “Liquid post exposure (weight)” value was 0.9262 g and 0.7170 g and 1.8815 g and 0.8535 g and 0.6307 g and 0.4568 g and 0.3007 g and 0.5227 g and 1.1365 g and 0.3679 g; the days alive came to 4 days; the “liquid consumed per day post exposure” value is 0.2316 g and 0.1793 g and 0.4704 g and 0.2134 g and 0.1577 g and 0.1142 g and 0.0752 g and 0.1307 g and 0.2841 g and 0.0920 g. The “safety towards B. terrestris” value in data set [1] is given as “safe”.
As to `CC(C)C[C@H](N=C(N(C)C)N(C)C)C(=O)N(C)[C@H](C(=O)N[C@@H](C)C(=O)N[C@@H](Cc1ccccc1)C(=O)N1CCC[C@H]1C(=O)N[C@@H](CCCNC(=N)N)C(=O)N[C@H](C(N)=O)C(C)C)C(C)C` [AH259, Guanidyl-L-(Me)V-AFPRV-NH2], the “CapaR Ca^2+ Agonist response” value at CapaR is on record as 12%. The “biostable in the presence of purified proteases” value in [2] is greater than 24 h. Also, in [3], the “biostable to insect tissue extracts enriched for proteases” value is greater than 3 h. Also, in [1] (0.1% ATPlus), the “lethal effect on bumblebees” value was “No lethal effect”. Further, the “safety towards B. terrestris” value in [1] is on record as “safe”.
Turning to H-Ahx-LVAFPRV-NH2 [AH56], in [4] (10^−5 M, 48 hr exposure), the “Feeding D. suzukii, % lethality in population after adjustment for baseline” value is listed as 51%. The “D. suzukii (Mean% Lethality ± SD)” value in data set [4] (Peptide screening, Table 5, blank control 20.33) turned out to be 50.63%. In addition, the “Feeding Aphid, % lethality in population after adjustment for baseline” value in the data set on M. persicae [5] is listed as 30%. In addition, the “M. persicae (% Lethality)” value with M. persicae [6] amounted to 30%. The “Spray Aphid, % lethality in population after adjustment for baseline” value in the data set with Myzus persicae aphids (10^−4 M) is on record as 41%. Besides, the “Spray Aphid, % lethality in population after adjustment for baseline” value in the data set on Myzus persicae aphids (10^−5 M) is reported as 35%. Further, in [2], the “biostable in the presence of purified proteases” value was greater than 24 h. In addition, the “biostable to insect tissue extracts enriched for proteases” value in [3] is greater than 3 h. Further, the “lethal effect on bumblebees” value in data set [1] (0.1% ATPlus) is reported as “No lethal effect”. Also, in data set [1] (setting [9]), the Volume remaining is 211 ul (2×) and 295 ul (2×) and 248 ul (2×) and 216 ul (2×) and 178 ul (2×); the Volume removed was 289 and 205 and 252 and 284 and 322. For the same molecule, in data set [1] (setting [10]), the “Volume remaining, group mean” value came to 229.6 µL and the “Volume removed, group mean” value is listed as 270.4. Further, the “safety towards B. terrestris” value in [1] is “safe”.

B1: AH257 (Guanidyl-LVAFPR-(Me)V-NH2) (peptide)
peptide: Guanidyl-LVAFPR[NMeV]-NH2
SMILES: CC(C)C[C@H](NC(N(C)C)=[N+](C)C)C(=O)N[C@H](C(=O)N[C@@H](C)C(=O)N[C@@H](Cc1ccccc1)C(=O)N1CCC[C@H]1C(=O)N[C@@H](CCCNC(=N)N)C(=O)N(C)[C@H](C(N)=O)C(C)C)C(C)C
Regarding B1, the “CapaR Ca^2+ Agonist response at 10^-7 M” value in data set [7] is 85 % of native Capa2 activity.

B2: AH259 (Guanidyl-L-(Me)V-AFPRV-NH2) (peptide)
peptide: Guanidyl-L[NMeV]AFPRV-NH2
SMILES: CC(C)C[C@H](NC(N(C)C)=[N+](C)C)C(=O)N(C)[C@H](C(=O)N[C@@H](C)C(=O)N[C@@H](Cc1ccccc1)C(=O)N1CCC[C@H]1C(=O)N[C@@H](CCCNC(=N)N)C(=O)N[C@H](C(N)=O)C(C)C)C(C)C
For the molecule B2, the “CapaR Ca^2+ Agonist response at 10^-7 M” value in [7] is 12 % of native Capa2 activity.

The values above are taken from patent publication US20240373849A1, “INSECT NEUROPEPTIDE ANALOGUES” (THE UNIVERSITY COURT OF THE UNIVERSITY OF GLASGOW, priority 2020, published 2024).
